Measurements as given in ChEMBL document CHEMBL1201862, “PubChem BioAssay data set” (2004).
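Five compound concentrations were applied to cells in 96-well plates for 48 hours; endpoints were derived by simple linear interpolation of the resulting dose-response curve. Here, GI50 denotes the concentration required for 50% inhibition of growth.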 Calls of active or inactive are those of the source. Cut-off read from the data, not from the text of the source: active = GI50 up to about 1.1 µM and inactive = higher.

Legend:
Test in all cases: NCI tumour cell line growth inhibition, 48 h
786-0 = tested on: 786-0
ACHN = tested on: ACHN
CAKI-1 = tested on: CAKI-1
CCRF-CEM = tested on: CCRF-CEM
DU-145 = tested on: DU-145
EKVX = tested on: EKVX
HOP-62 = tested on: HOP-62
MCF7 = tested on: MCF7
MDA-MB-435 = tested on: MDA-MB-435
MOLT-4 = tested on: MOLT-4
Malme-3M = tested on: Malme-3M
OVCAR-3 = tested on: OVCAR-3
OVCAR-4 = tested on: OVCAR-4
OVCAR-8 = tested on: OVCAR-8
PC-3 = tested on: PC-3
RXF 393 = tested on: RXF 393
SK-MEL-2 = tested on: SK-MEL-2
SNB-75 = tested on: SNB-75
TK-10 = tested on: TK-10
UACC-62 = tested on: UACC-62

CCCCCc1cc2c(cc1O)CC[C@@H]1[C@@H]2CC[C@]2(C)[C@@H](O)CC[C@@H]12
GI50 (786-0): 14.8 µM (inactive) | GI50 (ACHN): 14.1 µM (inactive) | GI50 (CAKI-1): 21.5 µM (inactive) | GI50 (CCRF-CEM): 35.3 µM (inactive) | GI50 (DU-145): 16.4 µM (inactive) | GI50 (EKVX): 17.9 µM (inactive) | GI50 (HOP-62): 22.4 µM (inactive) | GI50 (MCF7): 16.4 µM (inactive) | GI50 (MDA-MB-435): 15.7 µM (inactive) | GI50 (MOLT-4): 24.3 µM (inactive) | GI50 (Malme-3M): 19.1 µM (inactive) | GI50 (OVCAR-3): 14.3 µM (inactive) | GI50 (OVCAR-4): 21.6 µM (inactive) | GI50 (OVCAR-8): 20.1 µM (inactive) | GI50 (PC-3): 16.6 µM (inactive) | GI50 (RXF 393): 19.5 µM (inactive) | GI50 (SK-MEL-2): 23.3 µM (inactive) | GI50 (SNB-75): 13.5 µM (inactive) | GI50 (TK-10): 16.3 µM (inactive) | GI50 (UACC-62): 19.2 µM (inactive)

O=C1C=CC(=O)C(CNc2ccc(C(=O)OCc3ccccc3)cc2)=C1
GI50 (786-0): 3.33 µM (inactive) | GI50 (ACHN): 3.66 µM (inactive) | GI50 (CAKI-1): 1.38 µM (inactive) | GI50 (CCRF-CEM): 0.661 µM (active) | GI50 (DU-145): 12.2 µM (inactive) | GI50 (EKVX): 10.4 µM (inactive) | GI50 (HOP-62): 17.3 µM (inactive) | GI50 (MCF7): 4.57 µM (inactive) | GI50 (MDA-MB-435): 5.06 µM (inactive) | GI50 (MOLT-4): 2 µM (inactive) | GI50 (Malme-3M): 2.67 µM (inactive) | GI50 (OVCAR-3): 2.4 µM (inactive) | GI50 (OVCAR-4): 3.81 µM (inactive) | GI50 (OVCAR-8): 3.98 µM (inactive) | GI50 (PC-3): 3.36 µM (inactive) | GI50 (RXF 393): 2.68 µM (inactive) | GI50 (SK-MEL-2): 14.9 µM (inactive) | GI50 (SNB-75): 5.25 µM (inactive) | GI50 (TK-10): 4.62 µM (inactive) | GI50 (UACC-62): 8.97 µM (inactive)

CSc1ccc(NC(=S)NN(C)C)cc1
GI50 (786-0): > 10 µM (inactive) | GI50 (ACHN): > 10 µM (inactive) | GI50 (CAKI-1): > 10 µM (inactive) | GI50 (CCRF-CEM): > 10 µM (inactive) | GI50 (DU-145): > 10 µM (inactive) | GI50 (EKVX): > 10 µM (inactive) | GI50 (HOP-62): > 10 µM (inactive) | GI50 (MCF7): > 10 µM (inactive) | GI50 (MDA-MB-435): > 10 µM (inactive) | GI50 (MOLT-4): > 10 µM (inactive) | GI50 (Malme-3M): > 10 µM (inactive) | GI50 (OVCAR-3): > 10 µM (inactive) | GI50 (OVCAR-4): > 10 µM (inactive) | GI50 (OVCAR-8): > 10 µM (inactive) | GI50 (PC-3): > 10 µM (inactive) | GI50 (RXF 393): > 10 µM (inactive) | GI50 (SK-MEL-2): > 10 µM (inactive) | GI50 (SNB-75): > 10 µM (inactive) | GI50 (TK-10): > 10 µM (inactive) | GI50 (UACC-62): > 10 µM (inactive)

C#C[C@]1(O)CC[C@H]2[C@@H]3CCC4=C/C(=N/OC(=O)c5cccc6c(=O)c7ccccc7[nH]c56)CC[C@@H]4[C@H]3CC[C@@]21C
GI50 (786-0): > 100 µM (inactive) | GI50 (ACHN): 66.1 µM (inactive) | GI50 (CAKI-1): 37.5 µM (inactive) | GI50 (CCRF-CEM): 14.4 µM (inactive) | GI50 (DU-145): 61.9 µM (inactive) | GI50 (EKVX): 71 µM (inactive) | GI50 (HOP-62): > 100 µM (inactive) | GI50 (MCF7): 42.5 µM (inactive) | GI50 (MDA-MB-435): 43.1 µM (inactive) | GI50 (MOLT-4): 16.2 µM (inactive) | GI50 (Malme-3M): 45 µM (inactive) | GI50 (OVCAR-3): 64.1 µM (inactive) | GI50 (OVCAR-4): > 100 µM (inactive) | GI50 (OVCAR-8): 42.1 µM (inactive) | GI50 (PC-3): 37.5 µM (inactive) | GI50 (RXF 393): > 100 µM (inactive) | GI50 (SK-MEL-2): 57.4 µM (inactive) | GI50 (SNB-75): 97.7 µM (inactive) | GI50 (TK-10): > 100 µM (inactive) | GI50 (UACC-62): 35.6 µM (inactive)

CS[C@]12C(=O)C[C@@]3(C)[C@@H](CC[C@]3(O)C(=O)CO)[C@@H]1CCC1=CC(=O)CC[C@@]12C
GI50 (786-0): > 100 µM (inactive) | GI50 (ACHN): > 100 µM (inactive) | GI50 (CAKI-1): > 100 µM (inactive) | GI50 (CCRF-CEM): 42.8 µM (inactive) | GI50 (DU-145): > 100 µM (inactive) | GI50 (EKVX): > 100 µM (inactive) | GI50 (HOP-62): > 100 µM (inactive) | GI50 (MCF7): > 100 µM (inactive) | GI50 (MDA-MB-435): 30.1 µM (inactive) | GI50 (MOLT-4): 49.8 µM (inactive) | GI50 (Malme-3M): > 100 µM (inactive) | GI50 (OVCAR-3): > 100 µM (inactive) | GI50 (OVCAR-4): > 100 µM (inactive) | GI50 (OVCAR-8): > 100 µM (inactive) | GI50 (PC-3): 55 µM (inactive) | GI50 (RXF 393): > 100 µM (inactive) | GI50 (SK-MEL-2): > 100 µM (inactive) | GI50 (SNB-75): > 100 µM (inactive) | GI50 (TK-10): > 100 µM (inactive) | GI50 (UACC-62): > 100 µM (inactive)

CC1=C(C)C(=O)C(C2=C(C3=CC(=O)C(C)=C(C)C3=O)C(=O)c3ccccc3C2=O)=CC1=O
GI50 (786-0): 1.88 µM (inactive) | GI50 (ACHN): 2.31 µM (inactive) | GI50 (CAKI-1): 2.25 µM (inactive) | GI50 (CCRF-CEM): 0.619 µM (active) | GI50 (DU-145): 2.95 µM (inactive) | GI50 (EKVX): 2.12 µM (inactive) | GI50 (HOP-62): 14.7 µM (inactive) | GI50 (MCF7): 1.71 µM (inactive) | GI50 (MDA-MB-435): 1.5 µM (inactive) | GI50 (MOLT-4): 1.41 µM (inactive) | GI50 (Malme-3M): 1.12 µM (active) | GI50 (OVCAR-3): 2.68 µM (inactive) | GI50 (OVCAR-4): 1.7 µM (inactive) | GI50 (OVCAR-8): 2.38 µM (inactive) | GI50 (PC-3): 2.61 µM (inactive) | GI50 (RXF 393): 1.71 µM (inactive) | GI50 (SK-MEL-2): 2.32 µM (inactive) | GI50 (SNB-75): 9.79 µM (inactive) | GI50 (TK-10): 6.35 µM (inactive) | GI50 (UACC-62): 2.51 µM (inactive)

Cc1ccc(CC(Cc2ccc(C)cc2C(=O)O)C(=O)O)cc1 (stereo not given)
GI50 (786-0): > 100 µM (inactive) | GI50 (ACHN): > 100 µM (inactive) | GI50 (CAKI-1): > 100 µM (inactive) | GI50 (CCRF-CEM): > 100 µM (inactive) | GI50 (DU-145): > 100 µM (inactive) | GI50 (EKVX): > 100 µM (inactive) | GI50 (HOP-62): > 100 µM (inactive) | GI50 (MCF7): > 100 µM (inactive) | GI50 (MDA-MB-435): > 100 µM (inactive) | GI50 (MOLT-4): > 100 µM (inactive) | GI50 (Malme-3M): > 100 µM (inactive) | GI50 (OVCAR-3): > 100 µM (inactive) | GI50 (OVCAR-4): > 100 µM (inactive) | GI50 (OVCAR-8): > 100 µM (inactive) | GI50 (PC-3): > 100 µM (inactive) | GI50 (RXF 393): > 100 µM (inactive) | GI50 (SK-MEL-2): > 100 µM (inactive) | GI50 (SNB-75): > 100 µM (inactive) | GI50 (TK-10): > 100 µM (inactive) | GI50 (UACC-62): 43 µM (inactive)
